Marks after values point to notes of the source that are not given here.
Columns and labels:
Assay type in all cases: physicochemical
[1] = Micronisation: particle size distribution and polymorphic integrity; settings: for polymorphic integrity during micronisation (XRPD): XRPD trace after milling compared with before; for particle size distribution D10 / particle size distribution D50 / particle size distribution D90: after micronisation
From the text: Liquid suspension and aerosol formulations (whether pressurised or unpressurised) will typically contain the compound of the invention in particulate form, for example with a D50 of 0.5-10 μm, suitably around 1-5 μm, such as 1-2 μm. Suitably, the compound of the invention in particulate form has a D10 of 0.2 to 1 μm, such as 0.2 to 0.5 μm. Suitably, the compound of the invention in particulate form has a D90 of 2 to 6 μm such as 3 to 4 μm. The particulate form of the compound may, for example, be a micronised form. Micronisation may be performed using a jet mill such as those manufactured by Hosokawa Alpine. The resultant particle size distribution may be measured using laser diffraction (e.g. with a Malvern Mastersizer 2000S instrument). Particle size distributions may be represented using D10, D50 and D90 values. The Dso median value of particle size distributions is defined as the particle size in microns that divides the distribution in half. The measurement derived from laser diffraction is more accurately described as a volume distribution and consequently the D50 value obtained using this procedure is more meaningfully referred to as a Dv50 value (median for a volume distribution). As used herein Dv values refer to particle size distributions measured using laser diffraction. Similarly, D10 and D90 values, used in the context of laser diffraction, are taken to mean Dv10 and Dv90 values and refer to the particle size whereby 10% of the distribution lies below the D10 value, and 90% of the distribution lies below the D90 value, respectively.
A sample of crude input material (100 g, Form 3) was suspended in a mixture of 5% water in acetone (1.00 L), a seed of Form 1 (100 mg) was added and the mixture was stirred at RT overnight. The suspension was filtered and the filter cake was washed with a mixture of 5% water in acetone (20 mL) and the solids dried at 40° C. to provide polymorphic Form 1 as a white powder (85.5 g, 85.5% recovery, 98.7% purity by HPLC) as determined from its DSC trace (FIG. 9). Micronisation of the product so obtained provided a powder for which the particle size distribution, expressed in D values, was as follows: […].
Micronisation of the product so obtained provided a powder for which the particle size distribution, expressed in D values, was as follows: […]. It will be appreciated by those skilled in the art that these characteristics are suitable for a product intended for administration by inhalation. […] The Form 2 polymorph is therefore susceptible to and stable towards the micronisation process required to derive a material with the properties necessary for its intended purpose.

[2] = Thermo-gravimetric analysis (degradation onset)
Method: TGA data were collected on a TA Instrument Q500 TGA, equipped with a 16 position auto-sampler. The instrument was temperature calibrated using certified Alumel and Nickel. Typically 5-10 mg of sample was loaded onto a pre-tared aluminium DSC pan and heated at 10° C./min from ambient temperature to 350° C. A nitrogen purge at 60 mL/min was maintained over the sample. The instrument control software was Advantage for Q Series v2.5.0.256 and Thermal Advantage v5.5.3 and the data were analysed using Universal Analysis v4.5A.
TGA profiling was carried out according to methods described above and was used to determine the amount of residual solvents associated with the polymorphs of Compound I. In addition, it was used to measure the quantity of solvent released on heating from the solvated forms of Compound I. Typical residual solvent levels found in samples of the polymorphs of Compound I are as follows.

[3] = Fate of Form 2 slurried in single solvents, acetone, water and acetone/water mixtures, XRPD
Method: In order to determine the influence of water in determining the output from such conditioning experiments, the behaviour of the Form 2 polymorph was examined in nominally dry organic media and also in monophasic, aqueous mixtures with water miscible solvents.
The same result was also obtained when the conditioning medium was either neat acetone (Table 9, Entries 1 and 6) or water alone (Table 9, Entries 5 and 10). However, in acetone-water mixtures at 50° C. over 24 hr there was clear evidence that in two instances Form 2 had been transformed into Form 1 (Table 9, Entries 7 and 9).

[4] = Fate of Form 2 slurried in MEK/water mixtures, XRPD; settings: MEK, 50 °C, 24 hour time point
[5] = Fate of Form 2 slurried in 1,4-dioxane/water mixtures, XRPD; settings: 1,4-dioxane
Method: In the presence of 10% water the Form 1 polymorph is evident in the slurry mixture within an hour at 25° C. […] This ternary system behaved similarly at 50° C. However, at the higher temperature of 65° C. the rate of turnover is increased such that Form 1 was generated after 3 hr. Consistent with the data obtained from the experiments described above, increasing the proportion of water to 80% in this system was sufficient to halt the polymorphic interconversion at 25° C., 50° C. and even at 65° C.

## Cc1cc(N2CCN(c3ccc(C(=O)Nc4ccc(F)cc4)cc3)CC2)ccc1OC[C@@H]1CO[C@@](Cn2cncn2)(c2ccc(F)cc2F)C1 [Form 1, 4-(4-(4-(((3R,5R)-5-((1H-1,2,4-triazol-1-yl)methyl)-5-(2,4-difluorophenyl)tetrahydrofuran-3-yl)methoxy)-3-methylphenyl)piperazin-1-yl)-N-(4-fluorophenyl)benzamide]
[1]
  polymorphic integrity during micronisation (XRPD): polymorphic integrity was retained
  particle size distribution D10: 0.75 µm
  particle size distribution D50: 1.59 µm
  particle size distribution D90: 3.23 µm
[2]; sample prepared from toluene
  temperature from which degradation was evident (TGA): 320 °C

## Cc1cc(N2CCN(c3ccc(C(=O)Nc4ccc(F)cc4)cc3)CC2)ccc1OC[C@@H]1CO[C@@](Cn2cncn2)(c2ccc(F)cc2F)C1 [Form 2, 4-(4-(4-(((3R,5R)-5-((1H-1,2,4-triazol-1-yl)methyl)-5-(2,4-difluorophenyl)tetrahydrofuran-3-yl)methoxy)-3-methylphenyl)piperazin-1-yl)-N-(4-fluorophenyl)benzamide]
[1]
  polymorphic integrity during micronisation (XRPD): no significant change
  particle size distribution D10: 0.42 µm
  particle size distribution D50: 1.24 µm
  particle size distribution D90: 3.57 µm
[3]; acetone, water 0 vol %, 25 °C, 1 and 4 hr
  Polymorphic Form by XRPD: 2
[3]; acetone, water 0 vol %, 25 °C, 24 hr
  Polymorphic Form by XRPD: 2
[3]; acetone, water 0 vol %, 50 °C, 1 and 4 hr
  Polymorphic Form by XRPD: 2
[3]; acetone, water 0 vol %, 50 °C, 24 hr
  Polymorphic Form by XRPD: 2
[3]; acetone/water, water 10 vol %, 25 °C, 1 and 4 hr
  Polymorphic Form by XRPD: 2
[3]; acetone/water, water 10 vol %, 25 °C, 24 hr
  Polymorphic Form by XRPD: 2
[3]; acetone/water, water 10 vol %, 50 °C, 1 and 4 hr
  Polymorphic Form by XRPD: 2
[3]; acetone/water, water 10 vol %, 50 °C, 24 hr
  Polymorphic Form by XRPD: 1
[3]; acetone/water, water 20 vol %, 25 °C, 1 and 4 hr
  Polymorphic Form by XRPD: 2
[3]; acetone/water, water 20 vol %, 25 °C, 24 hr
  Polymorphic Form by XRPD: 2
[3]; acetone/water, water 20 vol %, 50 °C, 1 and 4 hr
  Polymorphic Form by XRPD: 2
[3]; acetone/water, water 20 vol %, 50 °C, 24 hr
  Polymorphic Form by XRPD: 2
[3]; acetone/water, water 40 vol %, 25 °C, 1 and 4 hr
  Polymorphic Form by XRPD: 2
[3]; acetone/water, water 40 vol %, 25 °C, 24 hr
  Polymorphic Form by XRPD: 2
[3]; acetone/water, water 40 vol %, 50 °C, 1 and 4 hr
  Polymorphic Form by XRPD: 2
[3]; acetone/water, water 40 vol %, 50 °C, 24 hr
  Polymorphic Form by XRPD: 1
[3]; heptane, TBME, toluene or cyclohexane as sole solvent, 25 or 50 °C, 24 hr
  change in crystal structure on suspension in sole solvent: no perceptible change in crystal structure
[3]; water 100 vol %, 25 °C, 1 and 4 hr
  Polymorphic Form by XRPD: 2
[3]; water 100 vol %, 25 °C, 24 hr
  Polymorphic Form by XRPD: 2
[3]; water 100 vol %, 50 °C, 1 and 4 hr
  Polymorphic Form by XRPD: 2
[3]; water 100 vol %, 50 °C, 24 hr
  Polymorphic Form by XRPD: 2
[4]; water 1 % vol
  Polymorphic Form by XRPD: 2
[4]; water 2 % vol
  Polymorphic Form by XRPD: 2
[4]; water 4 % vol
  Polymorphic Form by XRPD: 1
[4]; water 6 % vol
  Polymorphic Form by XRPD: 1
[4]; water 8 % vol
  Polymorphic Form by XRPD: 1
[2]; material isolated from MIBK
  temperature at which sample begun to degrade (TGA): 320 °C
[2]; sample derived from EtOH
  temperature at which degradation started (TGA): 320 °C
[5]; 10% water, 25 °C, 1 hr, trace of Form 2 remaining
  Polymorphic Form by XRPD: 1^†
[5]; 10% water, 25 °C, 3 hr, trace of Form 2 remaining
  Polymorphic Form by XRPD: 1^†
[5]; 10% water, 25 °C, 6 hr, trace of Form 2 remaining
  Polymorphic Form by XRPD: 1^†
[5]; 10% water, 25 °C, 24 hr, trace of Form 2 remaining
  Polymorphic Form by XRPD: 1^†
[5]; 10% water, 50 °C, 24 hr
  Polymorphic Form by XRPD: 1
[5]; 40% water, 25 °C, 1 hr
  Polymorphic Form by XRPD: 2
[5]; 40% water, 25 °C, 3 hr
  Polymorphic Form by XRPD: 2
[5]; 40% water, 25 °C, 6 hr
  Polymorphic Form by XRPD: 2
[5]; 40% water, 25 °C, 24 hr
  Polymorphic Form by XRPD: 1
[5]; 40% water, 50 °C, 1 hr
  Polymorphic Form by XRPD: 2
[5]; 40% water, 50 °C, 3 hr
  Polymorphic Form by XRPD: 2
[5]; 40% water, 50 °C, 6 hr
  Polymorphic Form by XRPD: 2
[5]; 40% water, 50 °C, 24 hr
  Polymorphic Form by XRPD: 1
[5]; 40% water, 65 °C, 1 hr
  Polymorphic Form by XRPD: 2
[5]; 40% water, 65 °C, 3 hr
  Polymorphic Form by XRPD: 1
[5]; 40% water, 65 °C, 6 hr
  Polymorphic Form by XRPD: 1
[5]; 40% water, 65 °C, 24 hr
  Polymorphic Form by XRPD: 1
[5]; 80% water, 25 °C, 1 hr
  Polymorphic Form by XRPD: 2
[5]; 80% water, 25 °C, 3 hr
  Polymorphic Form by XRPD: 2
[5]; 80% water, 25 °C, 6 hr
  Polymorphic Form by XRPD: 2
[5]; 80% water, 25 °C, 24 hr
  Polymorphic Form by XRPD: 2
[5]; 80% water, 50 °C, 1 hr
  Polymorphic Form by XRPD: 2
[5]; 80% water, 50 °C, 3 hr
  Polymorphic Form by XRPD: 2
[5]; 80% water, 50 °C, 6 hr
  Polymorphic Form by XRPD: 2
[5]; 80% water, 50 °C, 24 hr
  Polymorphic Form by XRPD: 2
[5]; 80% water, 65 °C, 1 hr
  Polymorphic Form by XRPD: 2
[5]; 80% water, 65 °C, 3 hr
  Polymorphic Form by XRPD: 2
[5]; 80% water, 65 °C, 6 hr
  Polymorphic Form by XRPD: 2
[5]; 80% water, 65 °C, 24 hr
  Polymorphic Form by XRPD: 2
